“Also recorded” adds a separate entry of the source.
Legend:
T4-2 cells [1] = conditions: T4-2 cells, 3D lrECM
Method: (§1) HMT-3522 cells were cultured on tissue culture plastic (2D) and in 3D lrECM gels with H14 medium, a 1:1 mix of DMEM/F12 (UCSF Cell Culture Facility) supplemented with 250 ng/ml insulin, 10 μg/ml transferrin, 2.6 ng/ml sodium selenite, 0.1 nM β-estradiol, 1.4 μM hydrocortisone and 5 μg/ml prolactin but no serum. S1 cells were additionally supplemented with 10 ng/ml EGF. MDA-MB-231 and HCC70 cells were cultured in DMEM and RPMI1640, respectively, and were supplemented with 10% fetal bovine serum (FBS).
(§2) For 3D lrECM cultures, S1 and T4-2 cells were seeded at 840,000 and 600,000 cells per cm3 respectively in lrECM gel (Cultrex), overlaid with H14 medium. MDA-MB-231 and HCC70 cells were seeded at 625,000 cell per cm3 and overlaid with H14 medium supplemented with 1% FBS. Cells were used for each assay after 10 days, unless otherwise indicated.
Pieces of lrECM gel containing cell colonies were suspended in approximately the same volume of phosphate buffered saline (PBS) and directly spread on glass slides. After brief air-drying, colonies were fixed with 3.7% paraformaldehyde (PFA) in PBS at room temperature (RT) for 10 min, washed with PBS containing 0.1 mM glycine, and permeabilized with 1:1 methanol/acetone at −20° C. for 10 min. After blocking with IF buffer (0.2% Triton X-100, 0.1% BSA [radioimmunoassay grade], 0.05% Tween 20, 7.7 mM NaN3 in PBS) containing 10% goat serum and 1% goat F(ab′)2 anti-mouse immunoglobulin G (IgG; Caltag) at RT for 30 min, colonies were stained with anti-α6 integrin antibody (Chemicon International) at 4° C. overnight. Colonies were washed extensively with IF buffer, and stained with Alexa 568-labeled anti-rat IgG antibody at RT for 2 hr. Colonies were washed with IF buffer again, and nuclei were stained with DAPI at RT for 10 min. Slides were briefly washed with PBS and mounted with 50% glycerol in PBS.
To test whether increased glucose metabolism itself is required for oncogenic signaling events, we utilized 3D lrECM cultures of HMT-3522, a breast cancer progression series which includes non-malignant (S1) and malignant (T4-2) human breast epithelial cells from the same individual (Briand et al., 1987; Petersen et al., 1992; Rizki et al., 2008). Using these cells, we have described the involvement and reciprocity of multiple signaling pathways including EGFR, β1 integrin, PI3K-Akt and MEK-ERK in oncogenic events (Beliveau et al., 2010; Bissell et al., 2005). […] We thus used this “phenotypic reversion” of the cancer cells as an assay to examine how the signaling integration plan of the breast acini could involve glucose metabolism.

S1 cells = assay: 3D lrECM culture of non-malignant S1 cells: acinar morphology and growth; format: cell-based, human; conditions: 2DG 4 mM, OGM 4 ng/ml
Method: as §1, §2
Pieces of lrECM gel containing cell colonies were suspended in approximately the same volume of phosphate buffered saline (PBS) and directly spread on glass slides. After brief air-drying, colonies were fixed with 3.7% paraformaldehyde (PFA) in PBS at room temperature (RT) for 10 min, washed with PBS containing 0.1 mM glycine, and permeabilized with 1:1 methanol/acetone at −20° C. for 10 min. […]

[2] = system: EGFR, β1 integrin, Akt, MEK, GLUT3, glycolytic enzymes in T4-2 cells; assay: Western blots of signaling intermediates, GLUT3 and metabolic enzymes in 3D lrECM cultures of T4-2 cells; format: cell-based, human; conditions: T4-2 cells
Method: Cell colonies were separated from lrECM gels by shaking in PBS containing 5 mM EDTA and the proteinase inhibitor cocktail set I (Calbiochem) on ice for 30 min. Cells were lysed in lysis buffer (1% NP-40, 1% deoxycholate, 2% SDS, 150 mM NaCl, 20 mM Tris-HCl [pH 7.4] plus 5 mM EDTA and protease inhibitor cocktail set I and phosphatase inhibitor cocktail set I [Calbiochem]) and sonicated three times for 30 sec each. Proteins were separated by SDS-PAGE, transferred to nitrocellulose membranes, and probed with antibodies against the following proteins: phosphorylated MEK, MEK, phosphorylated Akt, Akt, phosphorylated AMPK, AMPK, p70S6K, phosphorylated p70S6K, CHOP, EPAC1 (Cell Signaling), β1 integrin, EGFR, activated EGFR, HIF-1α, (Chemicon International), PFKP (Abgent), GAPDH, GLUT3 (GeneTex), LDHA, PDHE1α, DLAT, DLD, HIF-3α, Rap1, sAC, EPAC2, OGT, Lamin A/C (Santa Cruz Biotechnology), Aldolase (Polysciences), GFPT (ProteinTech Group), HIF-2α (Abcam), and HA-tag (Covance). After probing with HRP-conjugated secondary antibodies, blots were developed using SuperSignal West Femto chemiluminescence reagent (Pierce Biotechnology). Images were captured using Fluor Chem 8900 imager (Alpha Innotech).

T4-2 cells [3] = assay: Mitochondrial activity (MitoTracker oxidation) assay in 3D lrECM; format: cell-based, human
Method: Cells suspended in 200 μl lrECM were seeded in 12 well glass-bottom plates (14 mm diameter; MatTek Corporation). Gels were overlaid with 500 μl H14 media and cultured for 10 days before each assay unless otherwise described.
For mitochondrial activity, we slightly modified the method described previously (Morici et al., 2007). Briefly, cells were incubated with 2 μM MitoTracker® Orange CM-H2 TMRos (Invitrogen) for 1 hour and fixed with PFA as above. Cells were counterstained with Hoechst 33342 (Invitrogen), which is known also to bind to DNA stoichiometrically, then MitoTracker and Hoechst staining were measured by taking z-section images from top to bottom of the gels using confocal microscopy.
In each assay, one well, containing only lrECM, was made for background measurements. Glucose uptake measured by 2DG uptake, lactate production and MitoTracker staining were normalized using total DNA levels, and presented relative to that of control (either S1 or non-treated T4-2 cells).

EGFR, ITGB1, GLUT3 mRNA = assay: Quantitative PCR of EGFR, ITGB1 and GLUT3 mRNA in T4-2 cells; format: cell-based, human; conditions: 3D lrECM, normalized to 18S ribosomal RNA
Method: First strand cDNA pools of S1, T4-2 and reverted T4-2 cells were obtained from total RNA of each sample by using SuperScript II (Invitrogen). For each sample, reverse transcription was carried out with random hexamer and with oligo dT primer following the manufacturer's instruction, and the two reactions were mixed in a ratio of 9:1. Expression levels of EGFR, ITGB1, GLUT3 and 18S ribosomal RNA (used as a control) were quantified in LightCycler system (Roche) using QuantiTect SYBR Green PCR Kits (QIAGEN) and the reverse transcription mixtures. Expression levels of EGFR, ITGB1, GLUT3 were normalized to that of 18S ribosomal RNA.

[4] = system: S1 cells infected with GLUT3-HA-encoding lentivirus; assay: 3D lrECM culture of S1 cells overexpressing GLUT3; format: cell-based, human; conditions: S1 cells over-expressing GLUT3-HA, 2DG 4 mM
From the text: HIV 5′ LTR sequence in pTRIPZ vector (Open Biosystems) was removed by FspI-BbvCI digestion to replace with sequence containing chimeric CMV promoter-HIV 5′ LTR. CMV promoter was amplified by PCR from pcDNA3 (Invitrogen), fused to sequence containing partial HIV 5′ LTR sequence. The resulting intermediate vector, pTRIPZ-OY (optimal yield) was digested with BbvCI and NotI, to remove sequence containing TRE-minCMV promoter, turboRFP, UbqC promoter and rtTA3 (described in the manual provided by the manufacturer). The sequences containing EF1α/HTLV hybrid promoter and multiple cloning sites were removed from pCDH-EF1-MCS-T2A-Puro vector (System Bioscience) by digestion with the same restriction enzymes, and ligated into the digested pTRIPZ-OY vector, resulting in pLETIP vector. GLUT3 cDNA fused to C-terminal HA tag was amplified from total cDNA of T4-2 cells by PCR. The primers used were as follows: 5′-[…]-3′ (SEQ ID NO: 9) and 5′-[…] TTAGCA-3′ (SEQ ID NO: 10). The amplified cDNA was digested with BamHI and XmaI, and ligated into the same sites of pBluescriptII SK(−) vector for validating the sequence. GLUT3-HA cDNA was then digested with BamHI and SmaI, and ligated into pLETIP vector digested with NotI, blunted with T4 polymerase and further digested with BamHI, resulting in pLETIP GLUT3-HA vector. […]

[5] = same inhibitor concentrations as E1

SMILES: O=CC[C@@H](O)[C@H](O)[C@H](O)CO [2DG, 2-deoxy-D-glucose]
- phenotypic reversion of the malignant phenotype (T4-2 cells [1]; 2DG 4 mM, IA 20 μM, OX 50 mM, Azs 20 μM, DON 20 μM, BADGP 5 mM, TM 10 ng/ml, OGM 4 ng/ml, Rapa 0.01-1.0 μM): induced phenotypic reversion; also recorded: do induce phenotypic reversion
- basal polarity / organized acinar structures (T4-2 cells [1]; [5]): re-establishment of basally polarized acini
- growth / proliferation (cell numbers at the colony mid-section, EdU incorporation) (T4-2 cells [1]; [5]): growth arrest
- acinar morphology, basal polarity and growth rate of non-malignant cells (S1 cells): altered neither the acinar morphology nor the growth rate
- expression of ER stress marker CHOP ([2]; 3D cultures, 2DG 4 mM): unchanged
- phosphorylation of AMPK or S6K ([2]; 3D cultures, 2DG 4 mM): did not affect
- expression of GLUT3 and the glycolytic enzymes ([2]; 3D lrECM, Western blot): dramatic down-regulation
- expression of PDC components ([2]; 3D lrECM, Western blot): elevated
- levels and/or activities of EGFR, β1 integrin, Akt and MEK (oncogenic signaling) ([2]; 3D lrECM, Western blot): decrease
- mitochondrial activity (oxidation) (T4-2 cells [3]): essentially unaffected
- mRNA expression of EGFR, β1 integrin and GLUT3 (EGFR, ITGB1, GLUT3 mRNA): effectively suppressed
- reversal of the disorganized phenotype caused by GLUT3 over-expression [4]: could be reversed

From patent US9689042B2, “Use of glycolytic pathways for inhibiting or measuring oncogenic signaling” (The Regents of the University of California, priority 2012, dated 2017)
